Biological target: T1, Human HPK1, catalytic domain (Homo sapiens, UniProt Q92918)
T1 construct: purchased Carna
T1 sequence (Q92918 1-346): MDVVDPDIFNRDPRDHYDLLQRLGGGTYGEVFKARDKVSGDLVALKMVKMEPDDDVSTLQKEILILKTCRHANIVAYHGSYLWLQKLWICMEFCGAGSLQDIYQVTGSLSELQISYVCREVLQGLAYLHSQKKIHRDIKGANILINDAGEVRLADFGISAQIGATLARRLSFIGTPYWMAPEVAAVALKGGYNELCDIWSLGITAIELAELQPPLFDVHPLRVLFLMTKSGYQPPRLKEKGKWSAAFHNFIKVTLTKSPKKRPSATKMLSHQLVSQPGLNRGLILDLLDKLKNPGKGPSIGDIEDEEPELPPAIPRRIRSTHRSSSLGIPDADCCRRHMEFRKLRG
Test: HPK1-SLP76 TR-FRET assay
Assay type: biochemical
Settings: 75 pM HPK1, 10 uM ATP, 10 nM SLP76, 30 min compound pre-incubation

IC50 [nM]	Structure (SMILES)
455	Cc1ccc(C(F)(F)F)cc1Nc1ncc(C(N)=O)c(Nc2cccc3c2CCNC3=O)n1 [Example 25-32, 2-{[2-methyl-5-(trifluoromethyl)phenyl]amino}-4-[(1-oxo-1,2,3,4-tetrahydroisoquinolin-5-yl)amino]pyrimidine-5-carboxamide]
1.6	COc1cc2c(cc1Nc1ncc(C(N)=O)c(Nc3ccccc3Br)n1)CN(C1CC(C(=O)O)C1)CC2 (stereo not drawn) [Example 9-10, 3-[7-({4-[(2-bromophenyl)amino]-5-carbamoylpyrimidin-2-yl}amino)-6-methoxy-3,4-dihydroisoquinolin-2(1H)-yl]cyclobutane-1-carboxylic acid]
0.72	Cc1cc(Nc2ncc(C(N)=O)c(Nc3cccc4c3CCNC4=O)n2)ccc1F [Example 25-30, 2-[(4-fluoro-3-methylphenyl)amino]-4-[(1-oxo-1,2,3,4-tetrahydroisoquinolin-5-yl)amino]pyrimidine-5-carboxamide]
0.17	COc1cc2c(cc1Nc1ncc(C(N)=O)c(Nc3ccccc3C3CC3)n1)CN(C)CC2 [Example 4-26, 4-[(2-cyclopropylphenyl)amino]-2-[(6-methoxy-2-methyl-1,2,3,4-tetrahydroisoquinolin-7-yl)amino]pyrimidine-5-carboxamide]
3.65	CN1Cc2ccc(Nc3ncc(C(N)=O)c(Nc4cccc5c4CCNC5)n3)cc2C1=O [Example 7-64, 2-[(2-methyl-3-oxo-2,3-dihydro-1H-isoindolin-5-yl)amino]-4-[(1,2,3,4-tetrahydroisoquinolin-5-yl)amino]pyrimidine-5-carboxamide]
0.2	CN1CCc2cc(F)c(Nc3ncc(C(N)=O)c(Nc4c(F)cccc4C(F)(F)F)n3)cc2C1 [Example 4-29, 2-[(6-fluoro-2-methyl-1,2,3,4-tetrahydroisoquinolin-7-yl)amino]-4-{[2-fluoro-6-(trifluoromethyl)phenyl]amino} pyrimidine-5-carboxamide]
3.65	NC(=O)c1cnc(Nc2cc3n(n2)CCC3)nc1Nc1cccc2c1CCNC2=O [Example 7-58, 2-[(5,6-dihydro-4H-pyrrolo[1,2-b]pyrazol-2-yl)amino]-4-[(1-oxo-1,2,3,4-tetrahydroisoquinolin-5-yl)amino]pyrimidine-5-carboxamide]
548	COc1ccc(C(N)=O)cc1Nc1ncc(C(N)=O)c(Nc2ccccc2Br)n1 [Example 7-95, 4-[(2-bromophenyl)amino]-2-[(5-carbamoyl-2-methoxyphenyl)amino]pyrimidine-5-carboxamide]
146	COc1cc2c(cc1Nc1ncc(C(N)=O)c(NCc3ccc(C(F)(F)F)cc3)n1)CN(C)CC2 [Example 26-61, 2-[(6-methoxy-2-methyl-1,2,3,4-tetrahydroisoquinolin-7-yl)amino]-4-({[4-(trifluoromethyl)phenyl]methyl}amino)pyrimidine-5-carboxamide]
8.85	CNC(=O)c1cccc(Nc2nc(Nc3cc4c(cc3F)CCN(C)C4)ncc2C(N)=O)c1 [Example 7-41, 2-[(6-fluoro-2-methyl-1,2,3,4-tetrahydroisoquinolin-7-yl)amino]-4-{[3-(methylcarbamoyl)phenyl]amino} pyrimidine-5-carboxamide]
594	Cc1cccc(F)c1Nc1nc(Nc2cnn(CC(F)(F)F)c2)ncc1C(N)=O [Example 4-24, 4-[(2-fluoro-6-methylphenyl)amino]-2-{[1-(2,2,2-trifluoroethyl)-1H-pyrazol-4-yl]amino}pyrimidine-5-carboxamide]
0.13	COc1cc2c(cc1Nc1ncc(C(N)=O)c(Nc3cccc4c3CCNC4=O)n1)CN(C)CC2 [Example 7-27, 2-[(6-methoxy-2-methyl-1,2,3,4-tetrahydroisoquinolin-7-yl)amino]-4-[(1-oxo-1,2,3,4-tetrahydroisoquinolin-5-yl)amino]pyrimidine-5-carboxamide]
1.49	COc1cc2c(cc1Nc1ncc(C(N)=O)c(Nc3cccc4c3CCN(C)C4=O)n1)CN(C)CC2 [Example 7-35, 2-[(6-methoxy-2-methyl-1,2,3,4-tetrahydroisoquinolin-7-yl)amino]-4-[(2-methyl-1-oxo-1,2,3,4-tetrahydroisoquinolin-5-yl)amino]pyrimidine-5-carboxamide]
0.22	COc1cc2c(cc1Nc1ncc(C(N)=O)c(Nc3c(F)cccc3C(C)OC)n1)CN(C)CC2 (racemic) [Example 23-1, (RAC)-4-((2-fluoro-6-(1-methoxyethyl)phenyl)amino)-2-((6-methoxy-2-methyl-1,2,3,4-tetrahydroisoquinolin-7-yl)amino)pyrimidine-5-carboxamide]
20.1	NC(=O)c1cnc(Nc2cccc(C(F)(F)F)c2)nc1Nc1cccc2c1CCNC2=O [Example 25-18, 4-[(1-oxo-1,2,3,4-tetrahydroisoquinolin-5-yl)amino]-2-{[3-(trifluoromethyl)phenyl]amino}pyrimidine-5-carboxamide]
230	NC(=O)c1cnc(NCc2c(Cl)cccc2Cl)nc1Nc1cccc2c1CCNC2=O [Example 25-24, 2-{[(2,6-dichlorophenyl)methyl]amino}-4-[(1-oxo-1,2,3,4-tetrahydroisoquinolin-5-yl)amino]pyrimidine-5-carboxamide]
0.14	COc1cc2c(cc1Nc1ncc(C(N)=O)c(N[C@@H]3CCCC[C@@H]3C)n1)CN(C)CC2 [Example 26-41, 2-[(6-methoxy-2-methyl-1,2,3,4-tetrahydroisoquinolin-7-yl)amino]-4-{[(1R,2S)-2-methylcyclohexyl]amino}pyrimidine-5-carboxamide]
0.66	CS(=O)(=O)c1ccc(Nc2ncc(C(N)=O)c(Nc3cccc4c3CCNC4)n2)cc1 [Example 7-1, 2-{[4-(methylsulfonyl)phenyl]amino}-4-[(1,2,3,4-tetrahydroisoquinolin-5-yl)amino]pyrimidine-5-carboxamide]
733	COc1cc(F)ccc1Nc1ncc(C(N)=O)c(Nc2cccc3c2CCNC3=O)n1 [Example 25-41, 2-[(4-fluoro-2-methoxyphenyl)amino]-4-[(1-oxo-1,2,3,4-tetrahydroisoquinolin-5-yl)amino]pyrimidine-5-carboxamide]
1.48	NC(=O)c1cnc(Nc2cnn(CC3CC3)c2)nc1Nc1cccc2c1CCNC2 [Example 7-8, 2-{[1-(cyclopropylmethyl)-1H-pyrazol-4-yl]amino}-4-[(1,2,3,4-tetrahydroisoquinolin-5-yl)amino]pyrimidine-5-carboxamide]
0.07	COc1cc2c(cc1Nc1ncc(C(N)=O)c(Nc3cccc4c3CCNC4)n1)CN(C)CC2 [Example 7-4, 2-[(6-methoxy-2-methyl-1,2,3,4-tetrahydroisoquinolin-7-yl)amino]-4-[(1,2,3,4-tetrahydroisoquinolin-5-yl)amino]pyrimidine-5-carboxamide]
380	COCCC(=O)N1CCc2cc(OC)c(Nc3ncc(C(N)=O)c(Nc4ccccc4Br)n3)cc2C1 [Example 12-4, 4-[(2-bromophenyl)amino]-2-{[6-methoxy-2-(3-methoxypropanoyl)-1,2,3,4-tetrahydroisoquinolin-7-yl]amino}pyrimidine-5-carboxamide]
0.03	COc1cc2c(cc1Nc1ncc(C(N)=O)c(Nc3cccc4c3OCC4)n1)CN(C)CC2 [Example 7-7, 4-[(2,3-dihydro-1-benzofuran-7-yl)amino]-2-[(6-methoxy-2-methyl-1,2,3,4-tetrahydroisoquinolin-7-yl)amino]pyrimidine-5-carboxamide]
0.3	CC(C)(C)c1ccc(Nc2ncc(C(N)=O)c(Nc3cccc4c3CCNC4=O)n2)cc1 [Example 25-35, 2-[(4-tert-butylphenyl)amino]-4-[(1-oxo-1,2,3,4-tetrahydroisoquinolin-5-yl)amino]pyrimidine-5-carboxamide]
0.12	COc1cc2c(cc1Nc1ncc(C(N)=O)c(Nc3c(F)cccc3Br)n1)CN(C)CC2 [Example 4-4, 4-[(2-bromo-6-fluorophenyl)amino]-2-[(6-methoxy-2-methyl-1,2,3,4-tetrahydroisoquinolin-7-yl)amino]pyrimidine-5-carboxamide]
0.2	COc1cc2c(cc1Nc1ncc(C(N)=O)c(Nc3c(F)cccc3OC(F)F)n1)CN(C)CC2 [Example 4-31, 4-{[2-(difluoromethoxy)-6-fluorophenyl]amino}-2-1(6-methoxy-2-methyl-1,2,3,4-tetrahydroisoquinolin-7-yl)amino|pyrimidine-5-carboxamide]
70.5	COc1cc2c(cc1Nc1ncc(C(N)=O)c(Nc3cccc4nnc(C)cc34)n1)CN(C)CC2 [Example 7-6, 2-[(6-methoxy-2-methyl-1,2,3,4-tetrahydroisoquinolin-7-yl)amino]-4-[(3-methylcinnolin-5-yl)amino]pyrimidine-5-carboxamide]
2.43	COc1cc2c(cc1Nc1ncc(C(N)=O)c(Nc3cccc(CN(C)CC(=O)O)c3)n1)CN(C)CC2 [Example 7-34, N-{[3-({5-carbamoyl-2-[(6-methoxy-2-methyl-1,2,3,4-tetrahydroisoquinolin-7-yl)amino]pyrimidin-4-yl}amino)phenyl]methyl}-N-methylglycine]
1.07	COc1cc2c(cc1Nc1ncc(C(N)=O)c(NC3CCC(F)(F)C3)n1)CN(C)CC2 (stereo not drawn) [Example 26-38, 4-[(3,3-difluorocyclopentyl)amino]-2-[(6-methoxy-2-methyl-1,2,3,4-tetrahydroisoquinolin-7-yl)amino]pyrimidine-5-carboxamide]
1.32	COc1cc2c(cc1Nc1ncc(C(N)=O)c(N[C@H](C)C3CCCCC3)n1)CN(C)CC2 [Example 26-6, 4-{[(1R)-1-cyclohexylethyl]amino}-2-[(6-methoxy-2-methyl-1,2,3,4-tetrahydroisoquinolin-7-yl)amino]pyrimidine-5-carboxamide]

— US20230416225A1, “DIAMINOPYRIMIDINE CARBOXAMIDE INHIBITORS OF HPK1” (MERCK SHARP & DOHME LLC, priority 2020, published 2023)
